Results from patent US20110105472A1, “Diaminopyrimidines as crop protection agents” (Bayer CropScience AG, priority 2008, published 2011).

Experiment: logP by LC-MS, method [b], acidic range pH 2.7
Assay type: physicochemical
Conditions: not given

Row | SMILES | log p
1 | COC(=O)Nc1cccc(Nc2ncc(Cl)c(NC3CCC3)n2)c1 [Compound 139] | 1.73

Same assay, conditions: pH 2.7

Row | SMILES | log p
2 | Cc1nc2cc(Nc3ncc(Br)c(NC4CCC4)n3)ccc2s1 [Compound 10] | 2.11[b]
3 | O=C(c1ccc(Nc2ncc(Cl)c(NC3CCC3)n2)cc1)N1CCOCC1 [Compound 249] | 1.24[b]
4 | CC(=O)c1ccc(Nc2ncc(Br)c(NC3CCC3)n2)cc1 [compound 145] | 2.65[b]
5 | CCOC(=O)Nc1ccc(Nc2ncc(Br)c(NC3CCC3)n2)cc1 [Compound 195] | 1.9[b]
6 | COCc1cccc(Nc2ncc(Cl)c(NC3CCC3)n2)c1 [Compound 42] | 2.05[b]
7 | O=S1(=O)Cc2ccc(Nc3ncc(Br)c(NC4CCC4)n3)cc2C1 [compound 20] | 1.78[b]
8 | CC(=O)N1CCc2cc(Nc3ncc(Br)c(NC4CCC4)n3)ccc21 [Compound 17] | 1.68[b]
9 | COCC(C)Oc1ccc(Nc2ncc(Br)c(NC3CCC3)n2)cc1 (stereo not drawn) [Compound 41] | 2.11[b]
10 | CCC(=O)c1cc(Nc2ncc(Br)c(NC3CCC3)n2)ccc1O [compound 194] | 2.39[b]
11 | O=C1COCCN1c1cccc(Nc2ncc(Br)c(NC3CCC3)n2)c1 [Compound 210] | 1.53[b]
12 | FC(F)C(F)(F)Oc1ccc(Nc2ncc(Br)c(NC3CCC3)n2)cc1 [compound 159] | 3.1[b]
13 | O=C(Nc1ccc(Nc2ncc(Br)c(NC3CCC3)n2)cc1)C(F)(F)F [Compound 95] | 2.21[b]
14 | CCOC(=O)Nc1cccc(Nc2ncc(Br)c(NC3CCC3)n2)c1 [Compound 105] | 2.04[b]
15 | CCNC(=O)c1cccc(Nc2ncc(Br)c(NC3CCC3)n2)c1 [Compound 190] | 1.73[b]
16 | COc1cccc(Nc2ncc(C(F)(F)F)c(NC3CCC3)n2)c1 [Compound 238] | 3.48[b]
17 | CS(=O)(=O)c1cccc(Nc2ncc(C(F)(F)F)c(NC3CCC3)n2)c1 [Compound 264] | 2.76[b]
18 | FC(F)(F)Oc1ccc(Nc2ncc(Br)c(NC3CCC3)n2)cc1 [compound 183] | 3.73[b]
19 | CC(=O)N(C)c1ccc(Nc2ncc(Br)c(NC3CCC3)n2)cc1 [Compound 94] | 1.73[b]
20 | C=CC(=O)Nc1cccc(Nc2ncc(Br)c(NC3CCC3)n2)c1 [Compound 82] | 1.71[b]
21 | CSc1ccc(Nc2ncc(Cl)c(NC3CCC3)n2)cc1Cl [compound 115] | 3.22[b]
22 | CN(C)S(=O)(=O)Oc1cccc(Nc2ncc(Br)c(NC3CCC3)n2)c1 [Compound 89] | 2.7[b]
23 | O=C(c1ccc(Nc2ncc(Cl)c(NC3CCC3)n2)cc1)N1CCCCC1 [Compound 203] | 2.27[b]
24 | C=CCNC(=O)c1ccc(Nc2ncc(Br)c(NC3CCC3)n2)cc1 [Compound 83] | 1.99[b]

Row | SMILES | log p
25 | Brc1cnc(Nc2ccc3[nH]ccc3c2)nc1NC1CCC1 [Compound 1] | 1.59[b]
26 | Cc1ccc(NS(=O)(=O)c2cc(Nc3ncc(Br)c(NC4CCC4)n3)ccc2C)cc1 [Compound 66] | 3.07[b]
27 | COc1ccccc1Nc1ncc(Br)c(NC2CCC2)n1 [Compound 68] | 2.23[b]
28 | O=C(c1ccc(Nc2ncc(Br)c(NC3CCC3)n2)cc1)C(F)(F)F [Compound 197] | 4.41[b]
29 | O=C(Nc1cccc(Nc2ncc(Br)c(NC3CCC3)n2)c1)c1ccco1 [Compound 167] | 1.94[b]
30 | CCOC(=O)Nc1ccc(Nc2ncc(Cl)c(NC3CCC3)n2)cc1 [compound 136] | 1.8[b]
31 | Oc1ccc(Nc2ncc(Br)c(NC3CCC3)n2)cc1 [compound 37] | 1.27[b]
32 | COc1cc(Nc2ncc(Br)c(NC3CCC3)n2)ccc1F [Compound 31] | 2.41[b]
33 | CS(=O)(=O)c1ccc(Nc2ncc(Cl)c(NC3CCC3)n2)cc1 [compound 113] | 2.09[b]
34 | COc1ccc(Nc2ncc(Br)c(NC3CCC3)n2)cc1OC [Compound 65] | 1.71[b]
35 | CNC(=O)c1ccc(Nc2ncc(Cl)c(NC3CCC3)n2)cc1 [Compound 126] | 1.5[b]
36 | O=S1(=O)CCCN1c1cccc(Nc2ncc(Cl)c(NC3CCC3)n2)c1 [Compound 257] | 1.74[b]
37 | O=C(Nc1ccc(Nc2ncc(Br)c(NC3CCC3)n2)cc1)OCCCl [compound 43] | 2.06[b]
38 | CC(C)(CCl)C(=O)Nc1ccc(Nc2ncc(Br)c(NC3CCC3)n2)cc1 [Compound 165] | 2.16[b]
39 | Fc1cc(C(F)(F)F)ccc1Nc1ncc(Br)c(NC2CCC2)n1 [Compound 63] | 3.9[b]
40 | COc1cc(Nc2ncc(Br)c(NC3CCC3)n2)cc(OC)c1 [Compound 53] | 2.12[b]
41 | CC(C)(C)C(=O)Nc1cccc(Nc2ncc(Cl)c(NC3CCC3)n2)c1 [Compound 125] | 2.04[b]
42 | O=C1NC(=O)C(c2ccc(Nc3ncc(Br)c(NC4CCC4)n3)cc2)N1 (stereo not drawn) [Compound 187] | 1.24[b]
43 | COC(=O)c1ccc(Nc2ncc(Br)c(NC3CCC3)n2)cc1 [compound 158] | 2.84[b]
44 | O=C1CCCN1c1ccc(Nc2ncc(Cl)c(NC3CCC3)n2)cc1 [compound 133] | 1.66[b]
45 | CS(=O)(=O)c1cccc(Nc2ncc(Br)c(NC3CCC3)n2)c1 [Compound 265] | 2.07[b]
46 | CC(C)c1ccc(Nc2ncc(Br)c(NC3CCC3)n2)cc1 [Compound 40] | 3.13[b]
47 | C=CCNC(=O)c1ccc(Nc2ncc(Cl)c(NC3CCC3)n2)cc1 [Compound 241] | 1.91[b]

Row | SMILES | log p
48 | N#Cc1ccc(Nc2ncc(Br)c(NC3CCC3)n2)cc1 [Compound 70] | 2.95[b]
49 | Fc1ccc(Nc2ncc(Br)c(NC3CCC3)n2)cc1 [Compound 62] | 2.6[b]
50 | CN(C)S(=O)(=O)c1ccc(Nc2ncc(Br)c(NC3CCC3)n2)cc1 [Compound 91] | 2.73[b]
51 | FC(F)C(F)(F)Oc1cccc(Nc2ncc(Br)c(NC3CCC3)n2)c1 [compound 170] | 3.37[b]
52 | O=C(Nc1cccc(Nc2ncc(Br)c(NC3CCC3)n2)c1)Oc1ccccc1 [compound 199] | 2.51[b]
53 | FC1(F)Oc2ccc(Nc3ncc(Br)c(NC4CCC4)n3)cc2OC1(F)F [Compound 18] | 4.56[b]
54 | N#CCc1cccc(Nc2ncc(Br)c(NC3CCC3)n2)c1 [Compound 220] | 2.12[b]
55 | O=C1OCCN1c1ccc(Nc2ncc(Br)c(NC3CCC3)n2)cc1 [Compound 173] | 1.62[b]
56 | CC(C)(C)OC(=O)Nc1ccc(Nc2ncc(Br)c(NC3CCC3)n2)cc1 [Compound 162] | 2.36[b]
57 | O=C1Cc2cc(Nc3ncc(Cl)c(NC4CCC4)n3)ccc2N1 [compound 7] | 1.33[b]
58 | Clc1cnc(Nc2ccc(I)cc2)nc1NC1CCC1 [compound 230] | 3.49[b]
59 | C=C(C)C(=O)Nc1cccc(Nc2ncc(Cl)c(NC3CCC3)n2)c1 [compound 124] | 1.8[b]
60 | O=C1CCCCN1c1cccc(Nc2ncc(Cl)c(NC3CCC3)n2)c1 [Compound 204] | 1.66[b]
61 | CNc1ccc(Nc2ncc(Br)c(NC3CCC3)n2)cc1 [compound 213] | 1.18[b]
62 | CCCCC(=O)Oc1ccc(Nc2ncc(Br)c(NC3CCC3)n2)cc1 [compound 161] | 4.32[b]
63 | COc1cccc(Nc2ncc(Cl)c(NC3CCC3)n2)c1 [Compound 109] | 2.06[b]
64 | O=C(c1ccc(Nc2ncc(C(F)(F)F)c(NC3CCC3)n2)cc1)N1CCCCC1 [Compound 223] | 3.31[b]
65 | O=c1[nH]c2cc(Nc3ncc(Br)c(NC4CCC4)n3)ccc2o1 [Compound 16] | 1.61[b]
66 | CCOc1ccc(Nc2ncc(Br)c(NC3CCC3)n2)cc1 [Compound 35] | 2.17[b]
67 | CC(=O)Nc1cc(Nc2ncc(Br)c(NC3CCC3)n2)ccc1C [Compound 200] | 1.58[b]
68 | FC(F)Oc1ccc(Nc2ncc(Br)c(NC3CCC3)n2)cc1 [Compound 75] | 2.5[b]
69 | CC(=O)N(c1ccc(Nc2ncc(Br)c(NC3CCC3)n2)cc1)C1CC1 [Compound 209] | 1.9[b]
70 | CCOC(=O)Nc1ccc(Nc2ncc(Br)c(NC3CCC3)n2)cc1O [compound 151] | 1.8[b]

Row | SMILES | log p
71 | Brc1cnc(Nc2cccc(-c3nccs3)c2)nc1NC1CCC1 [Compound 33] | 2.8[b]
72 | CC(=O)Nc1ccc(Nc2ncc(Br)c(NC3CCC3)n2)cc1Cl [Compound 186] | 1.97[b]
73 | Oc1cccc(Nc2ncc(Br)c(NC3CCC3)n2)c1 [Compound 178] | 1.5[b]
74 | O=c1[nH]c2ccc(Nc3ncc(Cl)c(NC4CCC4)n3)cc2o1 [compound 8] | 1.55[b]
75 | CN(C)S(=O)(=O)c1cccc(Nc2ncc(Br)c(NC3CCC3)n2)c1 [Compound 157] | 2.53[b]
76 | COC(=O)c1ccc(Nc2ncc(Br)c(NC3CCC3)n2)cc1Cl [Compound 78] | 3.59[b]
77 | CC(C)(CF)C(=O)Nc1cccc(Nc2ncc(Br)c(NC3CCC3)n2)c1 [Compound 166] | 2.09[b]
78 | CN1CCN(c2cccc(Nc3ncc(Cl)c(NC4CCC4)n3)c2)C1=O [Compound 237] | 1.66[b]
79 | Oc1ccc(Nc2ncc(Br)c(NC3CCC3)n2)cc1F [Compound 184] | 1.5[b]
80 | FC(F)(F)Oc1cccc(Nc2ncc(Br)c(NC3CCC3)n2)c1 [compound 182] | 4.15[b]
81 | CC(C)(CF)C(=O)Nc1cccc(Nc2ncc(Cl)c(NC3CCC3)n2)c1 [Compound 141] | 1.97[b]
82 | FC(F)(F)Oc1ccc(Nc2ncc(Br)c(NC3CCC3)n2)cc1Cl [Compound 81] | 4.72[b]
83 | CC(C)(C)c1cccc(Nc2ncc(Br)c(NC3CCC3)n2)c1 [Compound 254] | 3.67[b]
84 | CN(C)S(=O)(=O)c1ccc(Nc2ncc(Cl)c(NC3CCC3)n2)cc1 [compound 114] | 2.53[b]
85 | COc1cc(Nc2ncc(Br)c(NC3CCC3)n2)ccc1NC(C)=O [Compound 90] | 1.59[b]
86 | O=C1CCCc2ccc(Nc3ncc(Br)c(NC4CCC4)n3)cc2N1 [Compound 15] | 1.75[b]
87 | O=C1CCc2cc(Nc3ncc(Br)c(NC4CCC4)n3)ccc21 [compound 9] | 2.59[b]
88 | FC(F)(F)Sc1ccc(Nc2ncc(Br)c(NC3CCC3)n2)cc1 [Compound 71] | 4.51[b]
89 | Cc1cc(Nc2ncc(Br)c(NC3CCC3)n2)ccc1O [Compound 201] | 1.59[b]
90 | OC(c1cccc(Nc2ncc(Cl)c(NC3CCC3)n2)c1)C(F)(F)F (stereo not drawn) [Compound 218] | 2.04[b]
